Measurements published in patent publication US8541361B2, “Composition” (DSM IP Assets B.V., priority 2009, dated 2013).
Square brackets hold non-standard residues; d marks the D form. * marks the point of attachment. Palmitoyl = CCCCCCCCCCCCCCCC(=O)*; Dab = NCC[C@H](N)C(=O)O

Test: Storage stability: normalized peptide content by analytical HPLC of glycerin/water solutions in glass vials, with or without salt
Format: physicochemical
Conditions: 40° C., glass vial
Experimental: (§1) Solutions of 127 mmol/kg H29C14—NH—CO-Dab-Val-Dab-OH in a Glycerin water mixture (˜2.3:1) containing salt concentrations of 382 mmol/kg have been prepared, distributed to 3 g per 10 ml glass vial and stored at 40° C. and 25° C. After various times, samples have been analyzed for their peptide content with analytical HPLC. The results have been normalized to the content at the preparation time to 100%.
as §1, with “119” for “127”, “Palm-Lys-Val-Lys-OH (SEQ ID NO:2)” for “H29C14—NH—CO-Dab-Val-Dab-OH”, “in” for “in a”, “one or three equivalents as indicated below” for “382 mmol/kg”, “40°” for “40° C. and 25°”
as §1, with “246” for “127”, “Palm-Lys-Val-Dab-OH (SEQ ID NO:5)” for “H29C14—NH—CO-Dab-Val-Dab-OH”, “in” for “in a”, “one or three equivalents as indicated below” for “382 mmol/kg”, “40°” for “40° C. and 25°”

H29C14—NH—CO-Dab-Val-Dab-OH
normalized peptide content (3 eq. CaCl2 (382 mmol/kg), t0, 127 mmol/kg peptide in Glycerin water): 100.0% | normalized peptide content (3 eq. CaCl2, 1 Month, 127 mmol/kg peptide in Glycerin water): 92.2% | normalized peptide content (3 eq. CaCl2, 2 Month, 127 mmol/kg peptide in Glycerin water): 96.9% | normalized peptide content (3 eq. CaCl2, 3 Month, 127 mmol/kg peptide in Glycerin water): 101.1% | normalized peptide content (3 eq. CaCl2, 4 Month, 127 mmol/kg peptide in Glycerin water): 95.4% | normalized peptide content (3 eq. CaCl2, 5 Month, 127 mmol/kg peptide in Glycerin water): 89.0% | normalized peptide content (3 eq. CaCl2, 6 Month, 127 mmol/kg peptide in Glycerin water): 88.9% | normalized peptide content (3 eq. LiCl (382 mmol/kg), t0, 127 mmol/kg peptide in Glycerin water): 100.0% | normalized peptide content (3 eq. LiCl, 1 Month, 127 mmol/kg peptide in Glycerin water): 93.1% | normalized peptide content (3 eq. LiCl, 2 Month, 127 mmol/kg peptide in Glycerin water): 95.3% | normalized peptide content (3 eq. LiCl, 3 Month, 127 mmol/kg peptide in Glycerin water): 99.8% | normalized peptide content (3 eq. LiCl, 4 Month, 127 mmol/kg peptide in Glycerin water): 96.4% | normalized peptide content (3 eq. LiCl, 5 Month, 127 mmol/kg peptide in Glycerin water): 90.7% | normalized peptide content (3 eq. LiCl, 6 Month, 127 mmol/kg peptide in Glycerin water): 87.6% | normalized peptide content (3 eq. MgCl2 (382 mmol/kg), t0, 127 mmol/kg peptide in Glycerin water): 100.0% | normalized peptide content (3 eq. MgCl2, 1 Month, 127 mmol/kg peptide in Glycerin water): 93.7% | normalized peptide content (3 eq. MgCl2, 2 Month, 127 mmol/kg peptide in Glycerin water): 96.5% | normalized peptide content (3 eq. MgCl2, 3 Month, 127 mmol/kg peptide in Glycerin water): 100.0% | normalized peptide content (3 eq. MgCl2, 4 Month, 127 mmol/kg peptide in Glycerin water): 94.9% | normalized peptide content (3 eq. MgCl2, 5 Month, 127 mmol/kg peptide in Glycerin water): 89.7% | normalized peptide content (3 eq. MgCl2, 6 Month, 127 mmol/kg peptide in Glycerin water): 90.7% | normalized peptide content (3 eq. ZnCl2 (382 mmol/kg), t0, 127 mmol/kg peptide in Glycerin water): 100.0% | normalized peptide content (3 eq. ZnCl2, 1 Month, 127 mmol/kg peptide in Glycerin water): 88.5% | normalized peptide content (3 eq. ZnCl2, 2 Month, 127 mmol/kg peptide in Glycerin water): 93.5% | normalized peptide content (3 eq. ZnCl2, 3 Month, 127 mmol/kg peptide in Glycerin water): 98.7% | normalized peptide content (3 eq. ZnCl2, 4 Month, 127 mmol/kg peptide in Glycerin water): 96.5% | normalized peptide content (3 eq. ZnCl2, 5 Month, 127 mmol/kg peptide in Glycerin water): 88.1% | normalized peptide content (3 eq. ZnCl2, 6 Month, 127 mmol/kg peptide in Glycerin water): 92.3% | normalized peptide content (No salt, 1 Month, 127 mmol/kg peptide in Glycerin water): 106.2% | normalized peptide content (No salt, 2 Month, 127 mmol/kg peptide in Glycerin water): 91.7% | normalized peptide content (No salt, 3 Month, 127 mmol/kg peptide in Glycerin water): 18.9% | normalized peptide content (No salt, 4 Month, 127 mmol/kg peptide in Glycerin water): 11.5% | normalized peptide content (No salt, 5 Month, 127 mmol/kg peptide in Glycerin water): 10.1% | normalized peptide content (No salt, t0, 127 mmol/kg peptide in Glycerin water (~2.3:1)): 100.0%

Palm-Lys-Val-Dab-OH (Palmitoyl-Lys-Val-[Dab]-OH; SMILES CCCCCCCCCCCCCCCC(=O)N[C@@H](CCCCN)C(=O)N[C@H](C(=O)N[C@@H](CCN)C(=O)O)C(C)C) [peptide substituted with a lipophilic moiety; Palm means palmitoyl and Dab means 2,4-diaminobutyroyl]
normalized peptide content (1 eq MgCl2, 1 Month, 246 mmol/kg peptide in Glycerin water): 71.7% | normalized peptide content (1 eq MgCl2, t0, 246 mmol/kg peptide in Glycerin water): 100.0% | normalized peptide content (3 eq LiCl, 1 Month, 246 mmol/kg peptide in Glycerin water): 75.9% | normalized peptide content (3 eq LiCl, t0, 246 mmol/kg peptide in Glycerin water): 100.0% | normalized peptide content (3 eq MgCl2, 1 Month, 246 mmol/kg peptide in Glycerin water): 70.5% | normalized peptide content (3 eq MgCl2, t0, 246 mmol/kg peptide in Glycerin water): 100.0% | normalized peptide content (3 eq NaCl, 1 Month, 246 mmol/kg peptide in Glycerin water): 75.7% | normalized peptide content (3 eq NaCl, t0, 246 mmol/kg peptide in Glycerin water): 100.0% | normalized peptide content (No salt, 1 Month, 246 mmol/kg peptide in Glycerin water): 44.2% | normalized peptide content (No salt, t0, 246 mmol/kg peptide in Glycerin water (~2.3:1)): 100.0%

Palm-Lys-Val-Lys-OH (Palmitoyl-Lys-Val-Lys-OH; SMILES CCCCCCCCCCCCCCCC(=O)N[C@@H](CCCCN)C(=O)N[C@H](C(=O)N[C@@H](CCCCN)C(=O)O)C(C)C) [peptide substituted with a lipophilic moiety; Palm means palmitoyl]
normalized peptide content (1 eq MgCl2, 1 Month, 119 mmol/kg peptide in Glycerin water): 81.4% | normalized peptide content (1 eq MgCl2, t0, 119 mmol/kg peptide in Glycerin water): 100.0% | normalized peptide content (3 eq LiCl, 1 Month, 119 mmol/kg peptide in Glycerin water): 83.6% | normalized peptide content (3 eq LiCl, t0, 119 mmol/kg peptide in Glycerin water): 100.0% | normalized peptide content (3 eq MgCl2, 1 Month, 119 mmol/kg peptide in Glycerin water): 87.4% | normalized peptide content (3 eq MgCl2, t0, 119 mmol/kg peptide in Glycerin water): 100.0% | normalized peptide content (3 eq NaCl, 1 Month, 119 mmol/kg peptide in Glycerin water): 82.0% | normalized peptide content (3 eq NaCl, t0, 119 mmol/kg peptide in Glycerin water): 100.0% | normalized peptide content (No salt, 1 Month, 119 mmol/kg peptide in Glycerin water): 76.4% | normalized peptide content (No salt, t0, 119 mmol/kg peptide in Glycerin water (~2.3:1)): 100.0%
